Data as given in patent publication US10168342B2, “Lipid probes and uses thereof” (THE SCRIPPS RESEARCH INSTITUTE, priority 2015, dated 2019).

How the values were obtained:
Assay in all cases: SILAC MS mapping of lipid probe targets (probe-versus-No UV, probe-versus-probe) in Neuro2a cells
[1] = target: T1, lipid-binding proteins in Neuro2a cells (Mus musculus, UniProt O08579); type: cell-based; conditions: AEA-DA probe vs NoUV
T1 construct: endogenous in cells; host or cells: Neuro2a

[2] = target: T2, lipid-binding proteins in Neuro2a cells (Mus musculus, UniProt O70252); type: cell-based; conditions: AEA-DA probe vs NoUV
T2 construct: endogenous in cells; host or cells: Neuro2a

[3] = target: T3, lipid-binding proteins in Neuro2a cells (Mus musculus, UniProt O70503); type: cell-based; conditions: AEA-DA probe vs NoUV
T3 construct: endogenous in cells; host or cells: Neuro2a

[4] = target: T4, lipid-binding proteins in Neuro2a cells (Mus musculus, UniProt P21619); type: cell-based; conditions: protein Lmnb2, AEA-DA probe, No UV control
T4 construct: endogenous in cells; host or cells: Neuro2a

[5] = target: T5, lipid-binding proteins in Neuro2a cells (Mus musculus, UniProt P45878); type: cell-based; conditions: protein Fkbp2, AEA-DA probe, No UV control
T5 construct: endogenous in cells; host or cells: Neuro2a

[6] = target: T6, lipid-binding proteins in Neuro2a cells (Mus musculus, UniProt P52019); type: cell-based; conditions: AEA-DA probe vs NoUV
T6 construct: endogenous in cells; host or cells: Neuro2a

[7] = target: T7, lipid-binding proteins in Neuro2a cells (Mus musculus, UniProt P97300); type: cell-based; conditions: AEA-DA probe vs NoUV
T7 construct: endogenous in cells; host or cells: Neuro2a
T7 sequence (P97300 29-397): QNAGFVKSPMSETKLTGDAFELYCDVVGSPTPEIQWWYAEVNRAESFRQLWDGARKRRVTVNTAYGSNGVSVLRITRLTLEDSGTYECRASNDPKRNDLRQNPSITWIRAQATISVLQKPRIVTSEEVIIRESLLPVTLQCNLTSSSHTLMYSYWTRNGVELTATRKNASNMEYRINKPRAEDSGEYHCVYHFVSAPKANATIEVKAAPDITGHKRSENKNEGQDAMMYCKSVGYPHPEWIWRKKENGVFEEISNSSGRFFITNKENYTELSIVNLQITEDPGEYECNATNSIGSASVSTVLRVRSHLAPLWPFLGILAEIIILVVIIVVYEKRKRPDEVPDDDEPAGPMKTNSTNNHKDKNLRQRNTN

[8] = target: T8, lipid-binding proteins in Neuro2a cells (Mus musculus, UniProt Q3KNM2); type: cell-based; conditions: AEA-DA probe vs NoUV
T8 construct: endogenous in cells; host or cells: Neuro2a
T8 sequence (Q3KNM2 whole entry): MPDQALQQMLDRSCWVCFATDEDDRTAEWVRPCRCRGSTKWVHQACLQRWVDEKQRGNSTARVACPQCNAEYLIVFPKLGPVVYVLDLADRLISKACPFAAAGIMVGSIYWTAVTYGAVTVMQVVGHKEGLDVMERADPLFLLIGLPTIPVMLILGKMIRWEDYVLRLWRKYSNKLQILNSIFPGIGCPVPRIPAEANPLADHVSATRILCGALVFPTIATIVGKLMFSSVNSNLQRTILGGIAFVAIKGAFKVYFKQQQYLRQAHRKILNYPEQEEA

[9] = target: T9, lipid-binding proteins in Neuro2a cells (Mus musculus, UniProt Q3UV70); type: cell-based; conditions: protein Pdp1, AEA-DA probe, No UV control
T9 construct: endogenous in cells; host or cells: Neuro2a

[10] = target: T10, lipid-binding proteins in Neuro2a cells (Mus musculus, UniProt Q505D7); type: cell-based; conditions: AEA-DA probe vs NoUV
T10 construct: endogenous in cells; host or cells: Neuro2a
T10 sequence (Q505D7 whole entry): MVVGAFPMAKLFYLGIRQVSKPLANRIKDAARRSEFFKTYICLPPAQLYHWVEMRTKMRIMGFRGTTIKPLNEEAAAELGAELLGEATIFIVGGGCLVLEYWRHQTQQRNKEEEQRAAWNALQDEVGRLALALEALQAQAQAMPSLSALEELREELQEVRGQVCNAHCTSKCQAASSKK

[11] = target: T11, lipid-binding proteins in Neuro2a cells (Mus musculus, UniProt Q60930); type: cell-based; conditions: AEA-DA probe vs NoUV
T11 construct: endogenous in cells; host or cells: Neuro2a

[12] = target: T12, lipid-binding proteins in Neuro2a cells (Mus musculus, UniProt Q60932); type: cell-based; conditions: AEA-DA probe vs NoUV
T12 construct: endogenous in cells; host or cells: Neuro2a
T12 sequence (Q60932 whole entry): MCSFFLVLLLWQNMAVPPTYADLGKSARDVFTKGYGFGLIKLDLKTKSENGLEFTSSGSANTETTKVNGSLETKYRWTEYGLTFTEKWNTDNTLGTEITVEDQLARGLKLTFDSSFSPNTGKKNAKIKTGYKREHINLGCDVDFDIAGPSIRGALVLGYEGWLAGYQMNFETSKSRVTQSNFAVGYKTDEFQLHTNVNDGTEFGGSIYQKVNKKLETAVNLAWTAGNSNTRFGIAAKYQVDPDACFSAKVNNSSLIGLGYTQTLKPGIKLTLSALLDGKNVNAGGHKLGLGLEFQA

[13] = target: T13, lipid-binding proteins in Neuro2a cells (Mus musculus, UniProt Q61207); type: cell-based; conditions: AEA-DA probe vs NoUV
T13 construct: endogenous in cells; host or cells: Neuro2a
T13 sequence (Q61207 60-557): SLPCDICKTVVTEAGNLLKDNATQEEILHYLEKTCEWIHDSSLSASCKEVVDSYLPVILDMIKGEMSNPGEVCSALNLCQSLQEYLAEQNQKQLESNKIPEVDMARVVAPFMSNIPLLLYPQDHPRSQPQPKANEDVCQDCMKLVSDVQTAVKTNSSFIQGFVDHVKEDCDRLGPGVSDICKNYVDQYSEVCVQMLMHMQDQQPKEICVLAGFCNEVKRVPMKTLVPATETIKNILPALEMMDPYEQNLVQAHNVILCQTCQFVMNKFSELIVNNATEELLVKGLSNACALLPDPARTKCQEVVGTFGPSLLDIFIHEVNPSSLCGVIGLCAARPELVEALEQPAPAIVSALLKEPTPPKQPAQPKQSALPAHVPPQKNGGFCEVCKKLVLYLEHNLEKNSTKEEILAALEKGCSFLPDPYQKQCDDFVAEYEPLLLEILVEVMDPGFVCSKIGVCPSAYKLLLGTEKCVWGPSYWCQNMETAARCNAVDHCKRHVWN

[14] = target: T14, lipid-binding proteins in Neuro2a cells (Mus musculus, UniProt Q61712); type: cell-based; conditions: AEA-DA probe vs NoUV
T14 construct: endogenous in cells; host or cells: Neuro2a

[15] = target: T15, lipid-binding proteins in Neuro2a cells (Mus musculus, UniProt Q62465); type: cell-based; conditions: AEA-DA probe vs NoUV
T15 construct: endogenous in cells; host or cells: Neuro2a

[16] = target: T16, lipid-binding proteins in Neuro2a cells (Mus musculus, UniProt Q78IK4); type: cell-based; conditions: protein Apool, AEA-DA probe, No UV control
T16 construct: endogenous in cells; host or cells: Neuro2a
T16 sequence (Q78IK4 28-265): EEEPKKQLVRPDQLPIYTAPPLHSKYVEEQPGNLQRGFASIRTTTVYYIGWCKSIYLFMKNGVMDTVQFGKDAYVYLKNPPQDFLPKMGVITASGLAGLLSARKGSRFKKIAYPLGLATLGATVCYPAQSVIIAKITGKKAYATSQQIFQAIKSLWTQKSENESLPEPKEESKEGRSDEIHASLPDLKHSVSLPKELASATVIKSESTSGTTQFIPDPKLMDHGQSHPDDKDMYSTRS

[17] = target: T17, lipid-binding proteins in Neuro2a cells (Mus musculus, UniProt Q80UU9); type: cell-based; conditions: AEA-DA probe vs NoUV
T17 construct: endogenous in cells; host or cells: Neuro2a

[18] = target: T18, lipid-binding proteins in Neuro2a cells (Mus musculus, UniProt Q8BHC4); type: cell-based; conditions: AEA-DA probe vs NoUV
T18 construct: endogenous in cells; host or cells: Neuro2a

[19] = target: T19, lipid-binding proteins in Neuro2a cells (Mus musculus, UniProt Q8BJ03); type: cell-based; conditions: protein Cox15, AEA-DA probe, No UV control
T19 construct: endogenous in cells; host or cells: Neuro2a
T19 sequence (Q8BJ03 whole entry): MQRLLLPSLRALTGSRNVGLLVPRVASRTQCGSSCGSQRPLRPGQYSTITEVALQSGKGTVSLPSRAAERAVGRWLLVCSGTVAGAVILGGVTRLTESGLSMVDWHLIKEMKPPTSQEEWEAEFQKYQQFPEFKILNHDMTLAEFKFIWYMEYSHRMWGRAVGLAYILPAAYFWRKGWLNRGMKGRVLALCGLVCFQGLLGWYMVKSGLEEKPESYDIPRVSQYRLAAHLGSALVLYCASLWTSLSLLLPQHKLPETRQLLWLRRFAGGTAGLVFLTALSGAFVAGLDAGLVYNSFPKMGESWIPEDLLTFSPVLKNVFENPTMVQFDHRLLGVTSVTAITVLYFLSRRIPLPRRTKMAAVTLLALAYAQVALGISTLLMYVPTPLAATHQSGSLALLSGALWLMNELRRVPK

[20] = target: T20, lipid-binding proteins in Neuro2a cells (Mus musculus, UniProt Q8BVU5); type: cell-based; conditions: protein Nudt9, AEA-DA probe, No UV control
T20 construct: endogenous in cells; host or cells: Neuro2a

[21] = target: T21, lipid-binding proteins in Neuro2a cells (Mus musculus, UniProt Q8R0X7); type: cell-based; conditions: AEA-DA probe vs NoUV
T21 construct: endogenous in cells; host or cells: Neuro2a

[22] = target: T22, lipid-binding proteins in Neuro2a cells (Mus musculus, UniProt Q8R2Y0); type: cell-based; conditions: AEA-DA probe vs NoUV
T22 construct: endogenous in cells; host or cells: Neuro2a

[23] = target: T23, lipid-binding proteins in Neuro2a cells (Mus musculus, UniProt Q8VCB1); type: cell-based; conditions: AEA-DA probe vs NoUV
T23 construct: endogenous in cells; host or cells: Neuro2a
T23 sequence (Q8VCB1 whole entry): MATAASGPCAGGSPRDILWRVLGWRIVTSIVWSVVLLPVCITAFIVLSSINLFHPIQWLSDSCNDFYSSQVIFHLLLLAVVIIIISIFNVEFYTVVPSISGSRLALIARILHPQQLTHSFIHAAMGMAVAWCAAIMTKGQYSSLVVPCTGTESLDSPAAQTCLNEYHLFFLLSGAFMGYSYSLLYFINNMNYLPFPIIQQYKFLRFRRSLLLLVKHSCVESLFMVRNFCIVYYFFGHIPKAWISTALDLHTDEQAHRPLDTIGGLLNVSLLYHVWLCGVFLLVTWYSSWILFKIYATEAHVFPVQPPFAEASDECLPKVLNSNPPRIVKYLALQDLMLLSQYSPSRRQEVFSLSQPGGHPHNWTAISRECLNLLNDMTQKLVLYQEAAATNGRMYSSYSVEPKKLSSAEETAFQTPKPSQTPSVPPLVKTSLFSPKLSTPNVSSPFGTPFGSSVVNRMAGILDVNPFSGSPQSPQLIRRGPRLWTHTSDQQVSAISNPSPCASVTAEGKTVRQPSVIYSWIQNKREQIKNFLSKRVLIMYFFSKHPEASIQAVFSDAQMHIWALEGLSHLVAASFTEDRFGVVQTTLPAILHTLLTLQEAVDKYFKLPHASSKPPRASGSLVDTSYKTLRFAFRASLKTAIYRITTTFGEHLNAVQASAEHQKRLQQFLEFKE

[24] = target: T24, lipid-binding proteins in Neuro2a cells (Mus musculus, UniProt Q8VCX5); type: cell-based; conditions: protein Micu1, AEA-DA probe, No UV control
T24 construct: endogenous in cells; host or cells: Neuro2a

[25] = target: T25, lipid-binding proteins in Neuro2a cells (Mus musculus, UniProt Q91V01); type: cell-based; conditions: AEA-DA probe vs NoUV
T25 construct: endogenous in cells; host or cells: Neuro2a

[26] = target: T26, lipid-binding proteins in Neuro2a cells (Mus musculus, UniProt Q91VM5); type: cell-based; conditions: protein Rbmxl1, AEA-DA probe, No UV control
T26 construct: endogenous in cells; host or cells: Neuro2a
T26 sequence (Q91VM5 whole entry): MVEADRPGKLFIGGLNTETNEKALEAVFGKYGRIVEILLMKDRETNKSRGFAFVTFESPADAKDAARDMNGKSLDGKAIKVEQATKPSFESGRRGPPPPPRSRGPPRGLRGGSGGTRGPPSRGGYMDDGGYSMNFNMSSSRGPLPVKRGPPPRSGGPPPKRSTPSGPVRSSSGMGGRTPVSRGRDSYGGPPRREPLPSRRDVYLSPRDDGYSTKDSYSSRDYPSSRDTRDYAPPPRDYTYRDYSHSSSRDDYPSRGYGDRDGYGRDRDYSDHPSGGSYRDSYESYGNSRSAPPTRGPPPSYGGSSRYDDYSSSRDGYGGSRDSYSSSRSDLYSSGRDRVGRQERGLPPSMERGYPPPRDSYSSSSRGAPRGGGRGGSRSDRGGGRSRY

[27] = target: T27, lipid-binding proteins in Neuro2a cells (Mus musculus, UniProt Q924Z4); type: cell-based; conditions: AEA-DA probe vs NoUV
T27 construct: endogenous in cells; host or cells: Neuro2a
T27 sequence (Q924Z4 whole entry): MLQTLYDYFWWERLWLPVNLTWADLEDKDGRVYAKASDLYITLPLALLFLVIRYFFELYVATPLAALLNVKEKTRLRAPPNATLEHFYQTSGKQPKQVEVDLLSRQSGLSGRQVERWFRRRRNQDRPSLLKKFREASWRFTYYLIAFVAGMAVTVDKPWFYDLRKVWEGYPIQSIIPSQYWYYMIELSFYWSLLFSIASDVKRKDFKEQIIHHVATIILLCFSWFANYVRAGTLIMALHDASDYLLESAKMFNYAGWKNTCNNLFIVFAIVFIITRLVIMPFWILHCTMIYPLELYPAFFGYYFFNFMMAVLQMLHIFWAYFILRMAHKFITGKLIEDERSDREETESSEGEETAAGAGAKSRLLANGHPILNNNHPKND

[28] = target: T28, lipid-binding proteins in Neuro2a cells (Mus musculus, UniProt Q99JY4); type: cell-based; conditions: AEA-DA probe vs NoUV
T28 construct: endogenous in cells; host or cells: Neuro2a

[29] = target: T29, lipid-binding proteins in Neuro2a cells (Mus musculus, UniProt Q99KJ8); type: cell-based; conditions: protein Dctn2, AEA-DA probe, No UV control
T29 construct: endogenous in cells; host or cells: Neuro2a
T29 sequence (Q99KJ8 whole entry): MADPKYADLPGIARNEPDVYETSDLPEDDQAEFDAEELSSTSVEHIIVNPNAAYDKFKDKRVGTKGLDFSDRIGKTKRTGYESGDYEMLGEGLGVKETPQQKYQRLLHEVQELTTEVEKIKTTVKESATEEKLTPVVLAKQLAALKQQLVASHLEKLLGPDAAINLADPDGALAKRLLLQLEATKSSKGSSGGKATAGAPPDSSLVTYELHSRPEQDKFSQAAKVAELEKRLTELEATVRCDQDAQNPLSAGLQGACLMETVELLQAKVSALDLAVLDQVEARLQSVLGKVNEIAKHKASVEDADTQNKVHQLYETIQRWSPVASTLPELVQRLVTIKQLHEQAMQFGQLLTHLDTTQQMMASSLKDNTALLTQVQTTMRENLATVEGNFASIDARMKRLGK

[30] = target: T30, lipid-binding proteins in Neuro2a cells (Mus musculus, UniProt Q9CPQ3); type: cell-based; conditions: AEA-DA probe vs NoUV
T30 construct: endogenous in cells; host or cells: Neuro2a

[31] = target: T31, lipid-binding proteins in Neuro2a cells (Mus musculus, UniProt Q9CQ85); type: cell-based; conditions: AEA-DA probe vs NoUV
T31 construct: endogenous in cells; host or cells: Neuro2a

[32] = target: T32, lipid-binding proteins in Neuro2a cells (Mus musculus, UniProt Q9R0P6); type: cell-based; conditions: AEA-DA probe vs NoUV
T32 construct: endogenous in cells; host or cells: Neuro2a

[33] = target: T33, lipid-binding proteins in Neuro2a cells (Mus musculus, UniProt Q9R1J0); type: cell-based; conditions: AEA-DA probe vs NoUV
T33 construct: endogenous in cells; host or cells: Neuro2a
T33 sequence (Q9R1J0 whole entry): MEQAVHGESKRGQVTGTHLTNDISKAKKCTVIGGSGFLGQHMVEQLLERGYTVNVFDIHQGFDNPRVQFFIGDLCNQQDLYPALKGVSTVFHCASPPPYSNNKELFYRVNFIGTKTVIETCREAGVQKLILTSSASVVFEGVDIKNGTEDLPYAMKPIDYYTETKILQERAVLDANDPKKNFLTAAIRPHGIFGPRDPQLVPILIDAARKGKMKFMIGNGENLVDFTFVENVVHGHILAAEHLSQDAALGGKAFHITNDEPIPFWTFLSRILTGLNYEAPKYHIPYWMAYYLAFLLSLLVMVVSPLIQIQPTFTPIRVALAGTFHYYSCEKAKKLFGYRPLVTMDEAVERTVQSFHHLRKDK

[34] = target: T34, lipid-binding proteins in Neuro2a cells (Mus musculus, UniProt Q9Z0R9); type: cell-based; conditions: AEA-DA probe vs NoUV
T34 construct: endogenous in cells; host or cells: Neuro2a
T34 sequence (Q9Z0R9 whole entry): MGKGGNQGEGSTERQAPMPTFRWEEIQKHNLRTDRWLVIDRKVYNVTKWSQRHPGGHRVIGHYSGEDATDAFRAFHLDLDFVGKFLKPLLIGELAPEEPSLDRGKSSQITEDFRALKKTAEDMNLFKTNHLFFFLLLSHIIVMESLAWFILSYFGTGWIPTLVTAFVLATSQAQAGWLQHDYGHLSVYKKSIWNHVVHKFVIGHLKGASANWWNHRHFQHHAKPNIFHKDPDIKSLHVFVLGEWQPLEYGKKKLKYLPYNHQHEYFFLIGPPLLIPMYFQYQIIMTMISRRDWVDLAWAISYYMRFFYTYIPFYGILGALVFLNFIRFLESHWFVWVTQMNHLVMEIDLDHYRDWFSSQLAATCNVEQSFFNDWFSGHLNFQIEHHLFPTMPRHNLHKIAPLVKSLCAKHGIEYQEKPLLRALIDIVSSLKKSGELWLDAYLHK

[35] = test system: lipid-binding proteins in Neuro2a cells; type: cell-based, mouse; conditions: AEA-DA probe vs NoUV

## C#CCCCC1(CC/C=C\C/C=C\C/C=C\CCCC(=O)NCCO)N=N1 [AEA-DA, (5Z,8Z,11Z)-N-(2-hydroxyethyl)-14-(3-(pent-4-yn-1-yl)-3H-diazirin-3-yl)tetradeca-5,8,11-trienamide]
[1]
  SILAC ratio, EMD (O08579): 20.0
[2]
  SILAC ratio, HMOX2 (P30519): 4.0
[3]
  SILAC ratio, HSD17B12 (Q53GQ0): 15.3
[4]
  SILAC ratio, AEA-DA probe versus No UV: 20.0
[5]
  SILAC ratio, AEA-DA probe versus No UV: 5.6
[6]
  SILAC ratio, SQLE (Q14534): 5.0
[7]
  SILAC ratio, NPTN (Q9Y639): 17.4
[8]
  SILAC ratio, MARCH5 (Q3KNM2): 20.0
[9]
  SILAC ratio, AEA-DA probe versus No UV: 20.0
[10]
  SILAC ratio, OPA3 (Q505D7): 20.0
[11]
  SILAC ratio, VDAC2 (P45880): 16.5
[12]
  SILAC ratio, VDAC1 (P21796): 20.0
[13]
  SILAC ratio, PSAP (P07602): 20.0
[14]
  SILAC ratio, DNAJC1 (Q96KC8): 20.0
[15]
  SILAC ratio, VAT1 (Q99536): 4.4
[16]
  SILAC ratio, AEA-DA probe versus No UV: 6.4
[17]
  SILAC ratio, PGRMC2 (Q80UU9): 16.3
[18]
  SILAC ratio, DCAKD (Q8BHC4): 9.0
[19]
  SILAC ratio, AEA-DA probe versus No UV: 12.3
[20]
  SILAC ratio, AEA-DA probe versus No UV: 20.0
[21]
  SILAC ratio, SGPL1 (O95470): 20.0
[22]
  SILAC ratio, ABHD6 (Q8R2Y0): 20.0
[23]
  SILAC ratio, TMEM48 (Q8VCB1): 14.5
[24]
  SILAC ratio, AEA-DA probe versus No UV: 20.0
[25]
  SILAC ratio, LPCAT3 (Q6P1A2): 18.7
[26]
  SILAC ratio, AEA-DA probe versus No UV: 6.0
[27]
  SILAC ratio, CERS2 (Q924Z4): 17.1
[28]
  SILAC ratio, TRABD (Q99JY4): 12.0
[29]
  SILAC ratio, AEA-DA probe versus No UV: 11.6
[30]
  SILAC ratio, TOMM22 (Q9CPQ3): 20.0
[31]
  SILAC ratio, TIMM22 (Q9CQ85): 13.6
[32]
  SILAC ratio, SEC11A (P67812): 5.4
[33]
  SILAC ratio, NSDHL (Q15738): 9.4
[34]
  SILAC ratio, FADS2 (Q9Z0R9): 10.5
[35]
  SILAC ratio, GM20425 (E9Q035): 16.5
